This is an account of results in US20160037775A1, “ACTIVE INGREDIENT COMBINATIONS HAVING INSECTICIDAL AND ACARICIDAL PROPERTIES” (priority 2010, published 2016).

Holding throughout (format): in vivo
For one assay, the system named is Spodoptera frugiperda. The assay is described as follows: whole plant or invertebrate. An excerpt:
(§1) If the actual kill rate is greater than that calculated, the kill rate of the combination is superadditive, which means that a synergistic effect is present. In this case, the kill rate actually observed must be greater than the value calculated from the above formula for the expected kill rate (E).
(§2) • 78 parts by weight of acetone • 1.5 parts by weight of dimethylformamide Emulsifier: 0.5 part by weight of alkylaryl polyglycol ether
(§3) To produce an appropriate active ingredient formulation, 1 part by weight of active ingredient is mixed with the stated amounts of solvent and emulsifier, and the concentrate is diluted with emulsifier-containing water to the desired concentration.
After the desired time, the kill in % is determined. 100% means that all caterpillars have been killed; 0% means that none of the caterpillars have been killed. The kill rates determined are entered into Colby's formula.

Another assay relates to Myzus persicae. Briefly: whole plant or invertebrate.
From the text: as §1, §2, §3
After the desired time, the kill in % is determined. 100% means that all aphids have been killed; 0% means that no aphids have been killed. The kill rates determined are entered into Colby's formula.

The subject of a further assay is Tetranychus urticae. The assay is described as follows: Tetranychus test (OP-resistant/spray treatment). To be noted: for pest or weed control at 4 g/ha / Kill rate in % after 6 d: after 6 d.
From the text: (§4) The expected action for a given combination of two active ingredients can be calculated according to S. R. Colby, Weeds 15 (1967), 20-22 as follows:
(§5) • X is the kill rate, expressed in % of the untreated control, in the case of use of active ingredient A in an application rate of m g/ha or in a concentration of m ppm, • Y is the kill rate, expressed in % of the untreated control, in the case of use of active ingredient B in an application rate of n g/ha or in a concentration of n ppm, and • E is the kill rate, expressed in % of the untreated control, in the case of use of active ingredients A and B in application rates of m and n g/ha or in a concentration of m and n ppm, then
as §1, §2, §3
Discs of bean leaves (Phaseolus vulgaris) infested by all stages of the two-spotted spider mite (Tetranychus urticae) are sprayed with an active ingredient formulation of the desired concentration.
After the desired period of time, the effect in % is determined. 100% means that all of the spider mites have been killed; 0% means that none of the spider mites have been killed.

The subject of a further assay is Phaedon cochleariae. Briefly: whole plant or invertebrate.
From the text: as §4, §5, §1, §2, §3
Cabbage leaves (Brassica oleracea) are treated by spraying with the active ingredient formulation of the desired concentration and populated with larvae of the mustard beetle (Phaedon cochleariae) while the leaves are still moist.
After the desired period of time, the kill rate in % is determined. 100% means that all beetle larvae have been killed; 0% means that none of the beetle larvae have been killed. The kill rates determined are entered into Colby's formula.

The mark [1] stands for this setting: Spodoptera frugiperda, 144 h, 0.032 g/ha, after 6 d, read-out: Kill rate in % after 6 d.
Where [2] appears, read: Tetranychus urticae, 144 h, 4 g/ha, applied individually, read-out: Kill rate in % after 6 d.
Where [3] appears, read: Spodoptera frugiperda, 144 h, 4 g/ha, after 6 d, read-out: Kill rate in % after 6 d.
The mark [4] stands for this setting: Phaedon cochleariae, 144 h, 4 g/ha, after 6 d, read-out: Kill rate in % after 6 d.
Setting [5] is: Phaedon cochleariae, 144 h, after 6 d, read-out: Kill rate in % after 6 d.
Where [6] appears, read: Spodoptera frugiperda, 144 h, 0.8 g/ha, after 6 d, read-out: Kill rate in % after 6 d.
The mark [7] stands for this setting: Myzus persicae, 144 h, 4 g/ha, after 6 d, read-out: Kill rate in % after 6 d.

Read-outs that look alike come from different tables or passages of the source.

Consider `CC1(C)[C@H](C(=O)O[C@H](C#N)c2cccc(Oc3ccccc3)c2)[C@@H]1/C=C(\Cl)C(F)(F)F` [L-cyhalothrin], for which the pest or weed control at 0.032 g/ha in the assay on Spodoptera frugiperda (setting [1]) was 0%. In addition, the pest or weed control at 0.16 g/ha in the assay on Myzus persicae (Myzus persicae, 24 h, 0.16 g/ha, after 1 d, read-out: Kill rate in % after 1 d) came to 0%. Moreover, the pest or weed control at 4 g/ha with Tetranychus urticae (setting [2]) is 20%.

As for `CNC(=O)Oc1cccc2ccccc12` [carbaryl], the pest or weed control at 4 g/ha with Spodoptera frugiperda (Spodoptera frugiperda, 144 h, read-out: Kill rate in % after 6 d) was 0%. The pest or weed control at 500 g/ha amounted to 0% with Myzus persicae (Myzus persicae, 24 h, read-out: Kill rate in % after 1 d); 10% in the assay with Tetranychus urticae (Tetranychus urticae, 48 h, read-out: Kill rate in % after 2 d); 20% in the assay on Tetranychus urticae (Tetranychus urticae, 144 h, read-out: Kill rate in % after 6 d).

Regarding `CNC(=O)c1cc(Cl)cc(C)c1NC(=O)c1cc(Br)nn1-c1ncccc1Cl` [chloranthraniliprole], in the assay on Spodoptera frugiperda (setting [1]), the pest or weed control at 0.032 g/ha was found to be 50%.

Take `COCCOC(=O)C(C#N)(C(=O)c1ccccc1C(F)(F)F)c1ccc(C(C)(C)C)cc1` (centres unmarked) [cyflumetofen]: the pest or weed control at 4 g/ha in the assay on Spodoptera frugiperda (setting [3]) was 17%; in the assay on Phaedon cochleariae (setting [4]), 0%.

In the case of `Nc1nc(N)nc(NC2CC2)n1` [cyromazine], the pest or weed control at 4 g/ha in the assay with Spodoptera frugiperda (setting [3]) and with Phaedon cochleariae (setting [4]) was 0% throughout. Moreover, in the assay on Myzus persicae (Myzus persicae, 24 h, 100 g/ha, after 1 d, read-out: Kill rate in % after 1 d), the pest or weed control at 100 g/ha came to 0%.

As to `Cc1nn(C)c(Oc2ccccc2)c1C=NOCc1ccc(C(=O)OC(C)(C)C)cc1` [fenpyroximate], the “Kill rate in % after 2 d” value with Spodoptera frugiperda (0.8 g/ha) stood at 0%. Further, in the assay on Tetranychus urticae (Tetranychus urticae, 48 h, 0.8 g/ha, after 2 d, applied individually, read-out: Kill rate in % after 2 d), the pest or weed control at 0.8 g/ha is 0%.

Take `Cc1cc(C(F)(C(F)(F)F)C(F)(F)F)ccc1NC(=O)c1cccc(I)c1C(=O)NC(C)(C)CS(C)(=O)=O` [flubendiamide]: the pest or weed control at 0.8 g/ha in the assay with Phaedon cochleariae (setting [5]) is 0%. In addition, in the assay with Tetranychus urticae (Tetranychus urticae, 48 h, 20 g/ha, after 2 d, applied individually, read-out: Kill rate in % after 2 d), the pest or weed control at 20 g/ha stood at 0%.

`O=S(=O)(CCC(F)=C(F)F)c1ncc(Cl)s1` [fluensulfone]: in the assay with Spodoptera frugiperda (2000 g/ha, after 6 d), the “Kill rate in % after 6 d” value came to 0%. Moreover, the “Kill rate in % after 2 d” value in the assay on Tetranychus urticae (2000 g/ha, after 2 d, applied individually) amounted to 0%.

Consider `O=C(NC(=O)c1c(F)cccc1F)Nc1ccc(Oc2ccc(C(F)(F)F)cc2Cl)cc1F` [flufenoxuron], for which the pest or weed control at 0.8 g/ha in the assay on Spodoptera frugiperda (setting [6]) came out at 0%; in the assay with Myzus persicae (Myzus persicae, 144 h, 0.8 g/ha, after 6 d, read-out: Kill rate in % after 6 d) it was 0%.

For the molecule `CC1(C)[C@H](C(=O)O[C@H](C#N)c2cccc(Oc3ccccc3)c2)[C@@H]1/C=C(\Cl)C(F)(F)F` [gamma-cyhalothrin], the “Kill rate in % after 2 d” value in the assay on Spodoptera frugiperda (0.032 g/ha) was found to be 17%; in the assay with Tetranychus urticae (0.8 g/ha, after 2 d, applied individually), 0%. In addition, in the assay with Myzus persicae (0.032 g/ha, after 1 d), the “Kill rate in % after 1 d” value amounted to 0%.

For the molecule `COC(=O)N(C(=O)N1CO[C@@]2(C(=O)OC)Cc3cc(Cl)ccc3C2=N1)c1ccc(OC(F)(F)F)cc1` [indoxacarb], in the assay with Spodoptera frugiperda (0.8 g/ha), the “Kill rate in % after 2 d” value turned out to be 50%. Further, the “Kill rate in % after 1 d” value in the assay on Myzus persicae (20 g/ha, after 1 d) amounted to 0%.

As to `O=C(NC(=O)c1c(F)cccc1F)Nc1cc(Cl)c(OC(F)(F)C(F)C(F)(F)F)cc1Cl` (centres unmarked) [lufenuron], the pest or weed control at 0.8 g/ha with Spodoptera frugiperda (setting [6]) amounted to 17%. Besides, the pest or weed control at 100 g/ha in the assay on Tetranychus urticae (Tetranychus urticae, 48 h, 100 g/ha, after 2 d, applied individually, read-out: Kill rate in % after 2 d) came to 0%.

With `COc1cccc(C(=O)NN(C(=O)c2cc(C)cc(C)c2)C(C)(C)C)c1C` [methoxyfenozide], the pest or weed control at 0.8 g/ha with Spodoptera frugiperda (setting [6]) and in the assay with Phaedon cochleariae (setting [5]) was 0% in each case. The pest or weed control at 4 g/ha in the assay with Myzus persicae (setting [7]) was found to be 0%.

With `O=C(NC(=O)c1c(F)cccc1F)Nc1ccc(OC(F)(F)C(F)OC(F)(F)F)c(Cl)c1` (centres unmarked) [novaluron], the pest or weed control at 0.8 g/ha with Spodoptera frugiperda (setting [6]) is 67%; with Phaedon cochleariae (setting [5]), 0%.

As to `CCCSP(=O)(OCC)Oc1ccc(Br)cc1Cl` (centres unmarked) [profenophos], the pest or weed control at 4 g/ha with Spodoptera frugiperda (setting [3]) was found to be 17%; in the assay with Phaedon cochleariae (setting [4]) it was 0%. For the same molecule, the “Kill rate in % after 2 d” value in the assay with Phaedon cochleariae (4 g/ha) is reported as 0%.

Regarding `FC(F)(F)c1ccc(OCCCOc2c(Cl)cc(OCC=C(Cl)Cl)cc2Cl)nc1` [pyridalyl], the pest or weed control at 4 g/ha is 0% in the assay on Spodoptera frugiperda (setting [3]); 0% in the assay on Phaedon cochleariae (setting [4]); 0% in the assay on Myzus persicae (Myzus persicae, 24 h, 4 g/ha, after 1 d, read-out: Kill rate in % after 1 d).

In the case of `CCC(C)(C)C(=O)OC1=C(c2ccc(Cl)cc2Cl)C(=O)OC12CCCCC2` [spirodiclofen], the “Kill rate in % after 6 d” value in the assay on Phaedon cochleariae (4 g/ha, after 6 d) worked out at 0%. The “Kill rate in % after 1 d” value in the assay with Myzus persicae (20 g/ha, after 1 d) was 0%; in the assay on Myzus persicae (100 g/ha, after 1 d), 0%. Besides, the “Kill rate in % after 2 d” value with Tetranychus urticae (100 g/ha, after 2 d, applied individually) stood at 0%.

Regarding `CCc1ccc(C(=O)NN(C(=O)c2cc(C)cc(C)c2)C(C)(C)C)cc1` [tebufenozide], the pest or weed control at 0.16 g/ha in the assay with Spodoptera frugiperda (Spodoptera frugiperda, 144 h, 0.16 g/ha, after 6 d, read-out: Kill rate in % after 6 d) was 0%. Further, in the assay on Phaedon cochleariae (4 g/ha), the “Kill rate in % after 2 d” value is on record as 0%. Moreover, the pest or weed control at 4 g/ha in the assay on Myzus persicae (setting [7]) turned out to be 0%.

Regarding `CCc1nn(C)c(C(=O)NCc2ccc(C(C)(C)C)cc2)c1Cl` [tebufenpyrad], the pest or weed control at 0.16 g/ha is 0% with Phaedon cochleariae (Phaedon cochleariae, 144 h, 0.16 g/ha, after 6 d, read-out: Kill rate in % after 6 d); 0% in the assay on Myzus persicae (Myzus persicae, 144 h, 0.16 g/ha, after 6 d, read-out: Kill rate in % after 6 d); 0% in the assay on Tetranychus urticae (Tetranychus urticae, 48 h, 0.16 g/ha, after 2 d, applied individually, read-out: Kill rate in % after 2 d). Besides, the pest or weed control at 0.8 g/ha in the assay with Myzus persicae (Myzus persicae, 24 h, 0.8 g/ha, after 1 d, read-out: Kill rate in % after 1 d) was found to be 0%. In addition, the pest or weed control at 4 g/ha in the assay with Tetranychus urticae (setting [2]) is 40%.

Consider `O=C(NC(=O)c1ccccc1Cl)Nc1ccc(OC(F)(F)F)cc1` [triflumuron], for which the pest or weed control at 4 g/ha with Phaedon cochleariae (setting [4]) and with Myzus persicae (setting [7]) was 0% each time. In the assay with Myzus persicae (Myzus persicae, 144 h, 20 g/ha, after 6 d, read-out: Kill rate in % after 6 d), the pest or weed control at 20 g/ha came out at 0%.

Consider `CC1(C)C(C=C(Cl)Cl)C1C(=O)OC(C#N)c1ccc(F)c(Oc2ccccc2)c1` (stereo not drawn) [β-cyfluthrin], for which the “Kill rate in % after 2 d” value in the assay with Phaedon cochleariae (0.032 g/ha) stood at 0%. Further, the “Kill rate in % after 1 d” value with Myzus persicae (0.032 g/ha, after 1 d) turned out to be 0%; in the assay with Myzus persicae (0.16 g/ha, after 1 d) it was 70%.

With abamectin, the “Kill rate in % after 6 d” value is reported as 0% in the assay on Phaedon cochleariae (0.032 g/ha, after 6 d); 0% with Tetranychus urticae (0.0064 g/ha, applied individually); 80% in the assay with Tetranychus urticae (0.032 g/ha, applied individually). For the same molecule, the “Kill rate in % after 1 d” value in the assay with Myzus persicae (0.16 g/ha, after 1 d) turned out to be 0%.

In the case of emamectin benzoate, the “Kill rate in % after 6 d” value in the assay on Phaedon cochleariae (0.032 g/ha, after 6 d) is reported as 0%. Moreover, the “Kill rate in % after 1 d” value in the assay on Myzus persicae (0.16 g/ha, after 1 d) is 0%; in the assay with Myzus persicae (0.8 g/ha, after 1 d) it was 0%. In the assay with Tetranychus urticae (0.032 g/ha, after 2 d, applied individually), the “Kill rate in % after 2 d” value worked out at 0%.

On to spinetoram, for which the “Kill rate in % after 6 d” value is reported as 0% in the assay with Phaedon cochleariae (0.16 g/ha, after 6 d); 0% in the assay on Myzus persicae (0.8 g/ha, after 6 d); 20% with Tetranychus urticae (4 g/ha, applied individually). For the same molecule, the “Kill rate in % after 1 d” value in the assay on Myzus persicae (4 g/ha, after 1 d) is 0%.

On to spinosad, for which the “Kill rate in % after 6 d” value in the assay with Spodoptera frugiperda (0.16 g/ha, after 6 d) was determined as 0%. Also, the “Kill rate in % after 2 d” value with Tetranychus urticae (20 g/ha, after 2 d, applied individually) came out at 20%.
